Measured values: patent publication US9283244B2, “Treatment of cancer by inhibiting activity or expression of late SV-40 factor” (Virginia Commonwealth University, priority 2010, dated 2016)
Each block holds one compound with its values, some of them ahead of it.

Tests used:
LSF-17 cells [1] = assay: Cell viability by standard MTT assay, LSF-17 cells; format: cell-based, human; conditions: SU11274 5 μM
Description: FIGS. 12A-F. Inhibition of CD44 and c-Met by SU11274 blocks LSF function. A. LSF-17 cells were treated with normal IgG or anti-CD44 antibody and then subjected to Matrigel invasion assay. (B, C) Cell viability (MTT) assay of LSF-17 (B) and QGY-7703 (C) cells treated with SU11274 (5 μM) for the indicated time period. (D, E) Matrigel invasion assays of LSF-17 (D) and QGY-7703 (E) cells treated with SU11274 (5 μM). For SU11274 removal, cells were treated with SU11274 for 24 h before seeding them in the invasion chamber in SU11274-free condition. For A-E, data represent mean±SEM. F. HepG3 cells were untreated or treated with OPN (100 ng/ml) and with SU11274 (5 μM) for 24 h and the expression of the indicated proteins were detected by Western blot analysis. Asterisk (*) represents statistically significant difference (p<0.05). Primary rat hepatocytes were isolated and cultured as described (19). SNU-423 cells were obtained from ATCC and cultured as instructed. HepG3, QGY-7703, Hep3B, HuH7, Focus and HEK-293 cells were cultured as described (20). Cell viability was determined by standard MTT assays as described (5). Colony formation, anchorage-independent growth in soft agar and matrigel invasion assays were performed exactly as described (5). […] LSF-17 cells and QGY-7703 cells were treated with the chemical inhibitor of c-Met, SU11274 (5 μM), and cell viability and Matrigel invasion was monitored. […]

QGY-7703 cells [2] = assay: Cell viability by standard MTT assay, QGY-7703 cells; format: cell-based, human; conditions: SU11274 5 μM
Description: (§1) FIGS. 12A-F. Inhibition of CD44 and c-Met by SU11274 blocks LSF function. A. LSF-17 cells were treated with normal IgG or anti-CD44 antibody and then subjected to Matrigel invasion assay. (B, C) Cell viability (MTT) assay of LSF-17 (B) and QGY-7703 (C) cells treated with SU11274 (5 μM) for the indicated time period. (D, E) Matrigel invasion assays of LSF-17 (D) and QGY-7703 (E) cells treated with SU11274 (5 μM). For SU11274 removal, cells were treated with SU11274 for 24 h before seeding them in the invasion chamber in SU11274-free condition. For A-E, data represent mean±SEM. F. HepG3 cells were untreated or treated with OPN (100 ng/ml) and with SU11274 (5 μM) for 24 h and the expression of the indicated proteins were detected by Western blot analysis. Asterisk (*) represents statistically significant difference (p<0.05).
(§2) FIGS. 13A-F. Genetic inhibition of c-Met by shRNA blocks LSF function. […] A. Expression of the indicated proteins was detected in the indicated cells by Western blot analysis. […] D. QGY-7703 cells were transfected with control scrambled siRNA (siCon) or c-Met siRNA (siMet) and cell viability was measured by MTT assay. […] F. The expression of the indicated proteins was detected in the indicated cells by Western blot analysis. […]
(§3) Primary rat hepatocytes were isolated and cultured as described (19). […] Cell viability was determined by standard MTT assays as described (5). […]

parental HepG3 cells = assay: Cell viability, parental HepG3 cells; format: cell-based, human; conditions: SU11274 treatment; data not shown
Description: Primary rat hepatocytes were isolated and cultured as described (19). SNU-423 cells were obtained from ATCC and cultured as instructed. HepG3, QGY-7703, Hep3B, HuH7, Focus and HEK-293 cells were cultured as described (20). Cell viability was determined by standard MTT assays as described (5). Colony formation, anchorage-independent growth in soft agar and matrigel invasion assays were performed exactly as described (5). We next investigated the importance of c-Met activation in mediating LSF function. LSF-17 cells and QGY-7703 cells were treated with the chemical inhibitor of c-Met, SU11274 (5 μM), and cell viability and Matrigel invasion was monitored. […] For invasion assay cells were treated with SU11274 for 24 h, a time point when no significant effect on cell viability was observed.

LSF-17 cells [3] = assay: Matrigel invasion assay, LSF-17 cells; format: cell-based, human
Description: FIGS. 8A-D. Inhibition of OPN abrogates LSF-induced tumorigenesis and metastasis. The indicated clones were subcutaneously implanted in athymic nude mice. A. Tumor volume and tumor weight were measured 3 weeks after implantation. B. Graphical representation of metastatic lung nodules in the animals injected with the LSF-17consh-15 and LSF-17-OPNsh-18 clones via tail vein. The data represent mean±SEM. Inset: H&E sections of lungs of animals injected with the indicated clones. C. Parental HepG3 cells were treated with conditioned media from Control-8 or LSF-17 clone of HepG3 cells and then subjected to matrigel invasion. D. Matrigel invasion assay using LSF17 clone of HepG3 cells in the presence of neutralizing antibodies. Integrin: anti-αvβ3 integrin antibody. […]
FIGS. 12A-F. Inhibition of CD44 and c-Met by SU11274 blocks LSF function. […] F. HepG3 cells were untreated or treated with OPN (100 ng/ml) and with SU11274 (5 μM) for 24 h and the expression of the indicated proteins were detected by Western blot analysis. […]
as §3
We next investigated the importance of c-Met activation in mediating LSF function. LSF-17 cells and QGY-7703 cells were treated with the chemical inhibitor of c-Met, SU11274 (5 μM), and cell viability and Matrigel invasion was monitored. […]

QGY-7703 cells [4] = assay: Matrigel invasion assay, QGY-7703 cells; format: cell-based, human
Description: as §1, §2, §3

c-Met = target: T1, c-Met (Homo sapiens, UniProt P08581); assay: Western blot of c-Met activation (p-c-Met) in HepG3 cells; format: cell-based
T1 construct: endogenous in cells; host or cells: HepG3 cells; LSF-17 clone of HepG3 (stably overexpresses LSF, not c-Met)
T1 sequence (P08581 25-1390): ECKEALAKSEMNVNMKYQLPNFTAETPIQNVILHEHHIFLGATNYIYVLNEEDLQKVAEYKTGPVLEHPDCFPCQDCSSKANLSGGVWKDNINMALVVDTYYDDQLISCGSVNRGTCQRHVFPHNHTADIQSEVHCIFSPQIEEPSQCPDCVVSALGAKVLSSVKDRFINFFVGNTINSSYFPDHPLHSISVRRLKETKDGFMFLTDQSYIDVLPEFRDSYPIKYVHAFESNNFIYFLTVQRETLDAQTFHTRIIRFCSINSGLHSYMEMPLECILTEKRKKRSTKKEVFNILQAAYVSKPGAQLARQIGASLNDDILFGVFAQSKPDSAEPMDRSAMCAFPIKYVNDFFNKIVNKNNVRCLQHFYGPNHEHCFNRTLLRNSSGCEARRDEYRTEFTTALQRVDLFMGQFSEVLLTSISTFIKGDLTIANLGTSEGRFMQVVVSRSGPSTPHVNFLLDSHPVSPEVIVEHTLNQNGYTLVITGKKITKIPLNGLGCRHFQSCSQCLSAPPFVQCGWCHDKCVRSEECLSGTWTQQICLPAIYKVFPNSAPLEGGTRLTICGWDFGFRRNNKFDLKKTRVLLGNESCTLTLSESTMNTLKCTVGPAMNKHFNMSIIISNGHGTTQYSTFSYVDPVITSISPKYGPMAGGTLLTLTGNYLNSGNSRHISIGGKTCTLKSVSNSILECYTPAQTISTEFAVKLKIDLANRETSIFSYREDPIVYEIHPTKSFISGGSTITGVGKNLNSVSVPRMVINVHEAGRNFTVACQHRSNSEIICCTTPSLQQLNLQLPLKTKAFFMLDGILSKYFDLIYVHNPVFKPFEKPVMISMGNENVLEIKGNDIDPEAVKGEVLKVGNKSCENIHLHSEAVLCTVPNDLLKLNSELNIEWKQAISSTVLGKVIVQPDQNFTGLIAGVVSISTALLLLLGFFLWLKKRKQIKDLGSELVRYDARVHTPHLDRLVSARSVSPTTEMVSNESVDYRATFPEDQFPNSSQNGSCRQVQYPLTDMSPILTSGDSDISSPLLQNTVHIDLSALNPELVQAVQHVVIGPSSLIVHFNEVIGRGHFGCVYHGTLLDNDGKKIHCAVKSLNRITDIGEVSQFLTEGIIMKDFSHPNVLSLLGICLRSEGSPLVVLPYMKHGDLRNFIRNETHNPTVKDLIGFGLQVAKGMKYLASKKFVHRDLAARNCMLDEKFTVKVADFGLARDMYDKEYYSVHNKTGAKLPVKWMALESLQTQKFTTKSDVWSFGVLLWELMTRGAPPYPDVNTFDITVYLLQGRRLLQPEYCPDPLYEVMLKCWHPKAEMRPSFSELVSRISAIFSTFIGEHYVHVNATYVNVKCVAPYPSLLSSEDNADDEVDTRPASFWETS
Description: FIGS. 10A-D. OPN activates c-Met. A. HepG3 cells were treated with OPN (100 ng/ml) for the indicated time points and p-c-Met and total c-Met levels were analyzed by Western blot analysis. B. Expression of OPN and p-c-Met was determined by immunohistochemical analysis in FFPE sections of normal liver and matched HCC. A representative figure is shown from one patient. C. Statistical correlation between OPN and phospho-c-Met levels in 50 human HCC patients analyzed by Pearson's test. D. Left panel: LSF-17consh-15 (Consh-15) is a clone of LSF-17 cells that stably expresses control scrambled shRNA and LSF-17-OPNsh-6 (OPNsh-6) and LSF-17-OPNsh-18 (OPNsh-18) are clones of LSF-17 cells stably expressing OPN shRNA. The expression of the indicated proteins was detected by Western blot analysis. Right panel, LSF-17 clone of HepG3 cells were treated with normal IgG (mouse and rabbit; Santa Cruz), anti-αvβ3 integrin antibody (mouse; Millipore) or anti-CD44 antibody (rabbit; Santa Cruz) at a concentration of 20 μg/ml for 24 h and the expression of the indicated proteins was detected by Western blot analysis.
as §1
(§4) Preparation of whole cell lysates and Western blot analyses were performed as described (5). The primary antibodies used were anti-LSF (1:2,000; mouse monoclonal; BD Biosciences), anti-pERK (1:2,000; rabbit polyclonal; Cell Signaling), anti-ERK (1:2,000; rabbit polyclonal; Cell Signaling), anti-pAKT (1:1,000; rabbit polyclonal; Cell Signaling) and anti-AKT (1:1,000; rabbit polyclonal; Cell Signaling). Blots were stripped and normalized by re-probing with anti-β-tubulin (1:1,000; mouse monoclona; Sigma).
To confirm the link between OPN and c-Met, HepG3 cells were treated with OPN (100 ng/ml) for 24 h in the presence or absence of SU11274. […] Treatment with OPN increased p-Akt/Akt ratio to 1.42 which was decreased to 0.63 upon SU11274 treatment.

Akt = assay: Western blot of Akt activation in HepG3 cells; format: cell-based, human
Description: as §1, §4
Treatment with OPN increased p-Akt/Akt ratio to 1.42 which was decreased to 0.63 upon SU11274 treatment.

ERK = assay: Western blot of ERK activation in HepG3 cells; format: cell-based, human; conditions: 24 h
Description: as §1
as §4, with “Sigma). […]” for “Sigma).”

CD44 and c-Met = target: T2, CD44 and c-Met (Homo sapiens, UniProt P16070); assay: Co-immunoprecipitation of CD44 and c-Met in HepG3 cells; format: cell-based
T2 construct: endogenous in cells; host or cells: HepG3 cells (lysates)
T2 sequence (P16070 21-742): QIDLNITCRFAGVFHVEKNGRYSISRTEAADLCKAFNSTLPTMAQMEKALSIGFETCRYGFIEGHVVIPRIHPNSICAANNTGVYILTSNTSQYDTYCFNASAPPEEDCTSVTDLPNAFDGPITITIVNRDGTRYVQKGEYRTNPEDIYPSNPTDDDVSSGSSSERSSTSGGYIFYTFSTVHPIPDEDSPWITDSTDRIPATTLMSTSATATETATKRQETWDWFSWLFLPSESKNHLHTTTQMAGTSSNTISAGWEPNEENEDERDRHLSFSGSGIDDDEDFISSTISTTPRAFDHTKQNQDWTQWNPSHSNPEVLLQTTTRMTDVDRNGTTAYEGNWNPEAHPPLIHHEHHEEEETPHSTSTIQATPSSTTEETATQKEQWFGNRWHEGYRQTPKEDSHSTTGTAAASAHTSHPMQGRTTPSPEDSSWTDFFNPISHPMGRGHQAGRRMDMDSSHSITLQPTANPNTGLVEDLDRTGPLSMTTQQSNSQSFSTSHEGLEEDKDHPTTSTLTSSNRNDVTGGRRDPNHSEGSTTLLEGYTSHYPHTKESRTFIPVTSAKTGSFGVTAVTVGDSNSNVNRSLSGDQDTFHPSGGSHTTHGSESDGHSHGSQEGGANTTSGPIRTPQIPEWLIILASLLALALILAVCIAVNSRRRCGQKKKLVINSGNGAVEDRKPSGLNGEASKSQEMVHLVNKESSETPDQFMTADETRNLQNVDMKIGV
T2 sequence (P08581 308-1390 partner limits assumed): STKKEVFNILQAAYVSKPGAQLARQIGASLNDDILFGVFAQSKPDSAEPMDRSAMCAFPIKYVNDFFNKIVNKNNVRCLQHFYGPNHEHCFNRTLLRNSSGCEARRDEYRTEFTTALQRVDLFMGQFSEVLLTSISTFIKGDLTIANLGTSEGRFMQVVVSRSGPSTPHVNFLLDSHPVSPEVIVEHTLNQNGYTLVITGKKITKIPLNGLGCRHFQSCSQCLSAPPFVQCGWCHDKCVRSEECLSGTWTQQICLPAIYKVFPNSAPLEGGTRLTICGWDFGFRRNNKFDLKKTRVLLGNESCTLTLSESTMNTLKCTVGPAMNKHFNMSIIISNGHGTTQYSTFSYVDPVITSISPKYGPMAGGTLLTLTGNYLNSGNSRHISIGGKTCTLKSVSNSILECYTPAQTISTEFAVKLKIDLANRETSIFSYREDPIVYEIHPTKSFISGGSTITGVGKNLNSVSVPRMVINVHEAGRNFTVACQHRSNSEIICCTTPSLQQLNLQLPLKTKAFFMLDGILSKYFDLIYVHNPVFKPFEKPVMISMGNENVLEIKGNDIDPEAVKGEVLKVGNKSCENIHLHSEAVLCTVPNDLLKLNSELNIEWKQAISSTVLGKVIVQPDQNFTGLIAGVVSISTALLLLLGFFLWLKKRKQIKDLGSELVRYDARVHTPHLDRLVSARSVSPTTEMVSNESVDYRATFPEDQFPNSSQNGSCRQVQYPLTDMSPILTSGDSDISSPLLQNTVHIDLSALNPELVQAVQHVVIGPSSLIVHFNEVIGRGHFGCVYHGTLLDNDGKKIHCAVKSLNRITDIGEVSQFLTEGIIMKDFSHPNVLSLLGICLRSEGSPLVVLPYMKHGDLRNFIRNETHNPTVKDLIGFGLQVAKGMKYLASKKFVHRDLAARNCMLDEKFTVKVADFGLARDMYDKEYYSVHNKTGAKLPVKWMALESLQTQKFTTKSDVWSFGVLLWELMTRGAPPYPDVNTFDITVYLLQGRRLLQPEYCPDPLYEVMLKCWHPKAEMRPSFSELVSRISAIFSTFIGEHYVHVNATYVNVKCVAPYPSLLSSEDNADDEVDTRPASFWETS
T2 sequence (P08581 25-307 partner limits assumed): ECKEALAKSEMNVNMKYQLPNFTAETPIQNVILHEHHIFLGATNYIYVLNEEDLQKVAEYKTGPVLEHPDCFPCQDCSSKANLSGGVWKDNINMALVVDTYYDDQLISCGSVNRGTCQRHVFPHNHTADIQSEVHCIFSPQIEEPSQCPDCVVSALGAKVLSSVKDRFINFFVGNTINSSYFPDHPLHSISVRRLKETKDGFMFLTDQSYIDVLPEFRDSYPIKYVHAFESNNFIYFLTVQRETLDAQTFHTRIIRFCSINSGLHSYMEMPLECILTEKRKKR
Description: FIGS. 11A-E. OPN facilitates c-Met activation via CD44 receptor. A. Left panel, HepG3 cells were cultured in serum-free conditions. Right panel, HepG3 cells were cultured in serum-containing medium and untreated or treated with OPN (100 ng/ml) for 24 h. Cell lysates were subjected to immunoprecipitation by anti-c-Met antibody and immunoblotting with anti-CD44, anti-[…] integrin and anti-c-Met antibodies. B. The culture conditions are the same as in A. Immunoprecipitation was done with anti-CD44 antibody and immunoblotting was done with anti-c-Met and anti-CD44 antibody. C. HepG3 cell were cultured in serum-free conditions and then untreated or treated with OPN (100 ng/ml) for 24 h. Immunoprecipitation was done with anti-CD44 antibody and immunoblotting was done with anti-p-c-Met or anti-CD44 antibodies. D. Lysates from LSF-17 and QGY-7703 cells were subjected to immunoprecipitation by anti-c-Met antibody and immunoblotting by anti-CD44, anti-αvβ3 integrin and anti-c-Met antibodies. E. Lysates from LSF-17 and QGY-7703 cells were subjected to immunoprecipitation by anti-CD44 antibody and immunoblotting by anti-c-Met, anti-p-c-Met and anti-CD44 antibodies. The bottom panel serves as inputs for D and E. IgG was used as a control in all the experiments.
We next explored the molecular mechanism of c-Met activation by OPN using co-immunoprecipitation analysis. […]

[5] = treated 24 h, then SU11274-free during invasion assay
[6] = co-treatment with SU11274 5 μM, 24 h

inhibition of basal and OPN-induced activation of c-Met (c-Met; [6]): significant inhibition
Compound: Cc1[nH]c(/C=C2\C(=O)Nc3ccc(S(=O)(=O)N(C)c4cccc(Cl)c4)cc32)c(C)c1C(=O)N1CCN(C)CC1 [SU11274]
cell viability (MTT) (LSF-17 cells [1]): significantly decreased | cell viability (MTT) (QGY-7703 cells [2]): significantly decreased | viability of parental HepG3 cells (parental HepG3 cells): did not affect the viability | Matrigel invasion (LSF-17 cells [3]; SU11274 5 μM, 24 h): significantly inhibited | Matrigel invasion after removal of SU11274 (LSF-17 cells [3]; [5]): significantly rescued the cells from inhibition of invasion | Matrigel invasion (QGY-7703 cells [4]; SU11274 5 μM, 24 h): significantly inhibited | Matrigel invasion after removal of SU11274 (QGY-7703 cells [4]; [5]): significantly rescued the cells from inhibition of invasion | p-Akt/Akt ratio (Akt; OPN 100 ng/ml plus SU11274, 24 h): 0.63 | p-Akt/Akt ratio (Akt; SU11274 alone (basal), control group 0.58): 0.05 | inhibition of basal and OPN-induced activation of Akt (Akt; [6]): significant inhibition | inhibition of basal and OPN-induced activation of ERK (ERK; SU11274 5 μM): partial inhibition

activation of c-Met (c-Met; OPN 100 ng/ml, 24 h): significantly activated | total c-Met level (c-Met; OPN treatment): did not change | activated c-Met level at 6 h post-treatment (c-Met; purified OPN 100 ng/ml): remained higher than basal level | time of peak level of c-Met activation post-treatment (c-Met; purified OPN 100 ng/ml): 30 min | binding affinity between c-Met and CD44 (CD44 and c-Met; serum-containing culture, OPN 100 ng/ml): did not affect the binding affinity | association between CD44 and phospho-c-Met (CD44 and c-Met; serum-free conditions, OPN 100 ng/ml 24 h): significantly increased
Compound: OPN: purified osteopontin, a secreted protein, added to cells at 100 ng/ml
activation of Akt (Akt; OPN 100 ng/ml, 24 h): significantly activated | p-Akt/Akt ratio (Akt; OPN 100 ng/ml, 24 h, control group 0.58): 1.42 | activation of ERK (ERK; OPN 100 ng/ml): significantly activated
